Data as given in patent publication US8895585B2, “Nicotinamide derivative or salt thereof” (FUJIFILM Corporation, priority 2010, dated 2014).

Assays:
[1] = molecular target: T1, glutathione S-transferase (GST)-fused full-length human Syk protein (Homo sapiens, UniProt P43405); test: Syk enzyme assay; type: biochemical; conditions: Syk enzyme assay, Test Example 1; read-out: IC50 of Syk-inhibitory activity
T1 construct: (GST)-fused full-length human Syk protein; GST (glutathione S-transferase); purchased Carna Biosciences
Summary of the method: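 IC50 values come from a time-resolved FRET readout (615 and 665 nm) of substrate phosphorylation, measured after an EDTA stop and 1 h antibody binding. The kinase reaction ran 40 min at room temperature with 27 μM ATP and 0.4 μM biotin-peptide, following a 15 min compound preincubation with baculovirus-made GST-full-length human Syk.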

[2] = tested on: THP-1 cells; test: TNFα generation assay; type: cell-based, human; conditions: Homo sapiens, THP-1, THP-1 cells; Table 22; read-out: IC50 in TNFα generation assay
Summary of the method: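 Secreted TNFα in supernatant quantified by ELISA or AlphaLISA after 7 h culture on human IgG-coated wells (10 μg/ml coating). Cells were IFN-γ-differentiated THP-1 (10 ng/ml, 2 days), exposed to compound for 30 min at room temperature before plating.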

Row | SMILES | IC50 [1] [nM] | IC50 [2] [nM]
1 | COCCOc1cc(Nc2nc(N[C@H](C3CC3)[C@H](C)N)c(F)cc2C(N)=O)ccn1 [Example 006-431, 6-(((1R,2S)-2-amino-1-cyclopropylpropyl)amino)-5-fluoro-2-((2-(2-methoxyethoxy)pyridin-4-yl)amino)nicotinamide] | 10 to 50 | 65 to 130
2 | COc1nccc(Nc2nc(N[C@@H]3CCCC[C@@H]3N)c(F)cc2C(N)=O)c1F [Example 006-432, 6-(((1R,2S)-2-aminocyclohexyl)amino)-5-fluoro-2-((3-fluoro-2-methoxypyridin-4-yl)amino)nicotinamide] | 10 to 50 | 65 to 130
3 | Cc1cc(Nc2nc(N[C@H](C3CC3)[C@H](C)N)c(F)cc2C(N)=O)cnc1C [Example 006-434, 6-(((1R,2S)-2-amino-1-cyclopropylpropyl)amino)-2-((5,6-dimethylpyridin-3-yl)amino)-5-fluoronicotinamide] | 50 to 100 | < 65
4 | Cc1cc(Nc2nc(N[C@H](CC3CC3)[C@H](C)N)c(F)cc2C(N)=O)cnc1C [Example 006-435, 6-(((2R,3S)-3-amino-1-cyclopropylbutan-2-yl)amino)-2-((5,6-dimethylpyridin-3-yl)amino)-5-fluoronicotinamide] | < 10 | 65 to 130
5 | Cc1nn(C)c2ccc(Nc3nc(N[C@H](CC4CC4)[C@H](C)N)c(F)cc3C(N)=O)cc12 [Example 006-442, 6-(((2R,3S)-3-amino-1-cyclopropylbutan-2-yl)amino)-2-((1,3-dimethyl-1H-indazol-5-yl)amino)-5-fluoronicotinamide] | < 10 | < 65
6 | CCn1nc(C)c2cc(Nc3nc(N[C@H](CC4CC4)[C@H](C)N)c(F)cc3C(N)=O)ccc21 [Example 006-443, 6-(((2R,3S)-3-amino-1-cyclopropylbutan-2-yl)amino)-2-((1-ethyl-3-methyl-1H-indazol-5-yl)amino)-5-fluoronicotinamide] | < 10 | 65 to 130
7 | COCCn1nc(C)c2cc(Nc3nc(N[C@H](CC4CC4)[C@H](C)N)c(F)cc3C(N)=O)ccc21 [Example 006-444, 6-(((2R,3S)-3-amino-1-cyclopropylbutan-2-yl)amino)-5-fluoro-2-((1-(2-methoxyethyl)-3-methyl-1H-indazol-5-yl)amino)nicotinamide] | 50 to 100 | 65 to 130
8 | Cc1nn(CC(F)F)c2ccc(Nc3nc(N[C@H](CC4CC4)[C@H](C)N)c(F)cc3C(N)=O)cc12 [Example 006-445, 6-(((2R,3S)-3-amino-1-cyclopropylbutan-2-yl)amino)-2-((1-(2,2-difluoroethyl)-3-methyl-1H-indazol-5-yl)amino)-5-fluoronicotinamide] | < 10 | 65 to 130
9 | NC(=O)c1cc(F)c(N[C@@H]2CCCC[C@@H]2N)nc1Nc1cnc(-n2cccn2)c(Cl)c1 [Example 006-446, 6-(((1R,2S)-2-aminocyclohexyl)amino)-2-((5-chloro-6-(1H-pyrazol-1-yl)pyridin-3-yl)amino)-5-fluoronicotinamide] | 10 to 50 | 130 to 200
10 | NC(=O)c1cc(F)c(N[C@@H]2CCCC[C@@H]2N)nc1Nc1cnc(-n2cccn2)c(F)c1 [Example 006-447, 6-(((1R,2S)-2-aminocyclohexyl)amino)-5-fluoro-2-((5-fluoro-6-(1H-pyrazol-1-yl)pyridin-3-yl)amino)nicotinamide] | 10 to 50 | 130 to 200
11 | NC(=O)c1cc(F)c(N[C@@H]2CCCC[C@@H]2N)nc1Nc1cnc(-n2cccn2)c(-n2nccn2)c1 [Example 006-449, 2-((6-(1H-pyrazol-1-yl)-5-(2H-1,2,3-triazol-2-yl)pyridin-3-yl)amino)-6-(((1R,2S)-2-aminocyclohexyl)amino)-5-fluoronicotinamide] | 50 to 100 | 130 to 200
12 | CCc1nn(C)c2ccc(Nc3nc(N[C@@H]4CCCC[C@@H]4N)c(F)cc3C(N)=O)cc12 [Example 006-451, 6-(((1R,2S)-2-aminocyclohexyl)amino)-2-((3-ethyl-1-methyl-1H-indazol-5-yl)amino)-5-fluoronicotinamide] | < 10 | < 65
